Results reported in patent US10280170B2, “Substituted 4,5,6,7-tetrahydro-pyrazolo[1,5-a]pyrazine derivatives and 5,6,7,8-tetrahydro-4H-pyrazolo[1,5-a][1,4]diazepine derivatives as Ros1 inhibitors” (Janssen Pharmaceutica NV, priority 2014, dated 2019).

How the values were obtained:
[1] = tested on: Ba/F3 cells containing Ros1 wild-type protein + IL-3; test: Ba/F3-Ros1 cell proliferation counter-screen, wild-type protein in the presence of 10 ng/ml murine IL-3; format: cell-based; conditions: Mus musculus, BaF3, 24 h, read-out: BaF3-ROS1 + IL3 pIC50 (converted)
Procedure, shortened: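 Read-out is resazurin-based Alamar Blue fluorescence (RFU, ex 540 nm, em 590 nm), measured 4 h after dye addition. Before that, wild-type Ros1 Ba/F3 cells had been cultured 24 h with compound in the presence of 10 ng/ml murine IL-3.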

[2] = tested on: Ros pY2274 in HCC78 cells; test: pROS1 immunofluorescence assay in HCC78 cells; format: cell-based; conditions: Homo sapiens, HCC78, 4 h, read-out: HCC78-pRos1 pIC50 (converted)
Procedure, shortened: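 HCC78 NSCLC cells treated with compound for 4 h at 37 °C, then fixed and immunostained for ROS1 pY2274 (Alexa Fluor 680, read at 700 nm). Total ROS1 stained in parallel (IRDye800cw, 800 nm) and used to normalize phospho signal.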

Row | Structure (SMILES) | CC50 [1] | IC50 [2] | melting point
1 | CC(C)c1ccc(COc2ccc(-c3c(-c4ccncc4)nn4c3C(=O)NCC4)cc2)cc1 [Compound 1] | > 10 µM | 0.0251 µM | –
2 | CC(C)c1ccc(COc2ccc(-c3c(-c4ccncc4)nn4c3C(=O)N(CCO)CC4)cc2)cc1 [Compound 2] | > 10 µM | 0.0251 µM | 181 °C
